Values quoted from earlier work in patent US7094735B2, “Herbicide microemulsion-forming-concentrates, microemulsions, and methods” (priority 2001, dated 2006).

Conditions: Table 1, exemplary pKa values of acidic herbicides

Compound | pKas
C[C@@H](Oc1ccc(Oc2ccc(C(F)(F)F)cn2)cc1)C(=O)O [Fluazifop-p] | 2.98
O=C(O)c1cc(Oc2ccc(C(F)(F)F)cc2Cl)ccc1[N+](=O)[O-] [Acifluorfen] | 3.86
Imazamethbenz | 2.9
CC(Oc1ccc(Oc2ncc(C(F)(F)F)cc2Cl)cc1)C(=O)O (stereo not shown) [Haloxyfop] | 4.33
CCc1cnc(C2=NC(C)(C(C)C)C(=O)N2)c(C(=O)O)c1 (stereo not shown) [Imazethapyr] | 3.9
N#Cc1cc(I)c(O)c(I)c1 [Ioxynil] | 3.96
O=C(O)c1c(Cl)ccc2cc(Cl)cnc12 [Quinclorac] | 4.34
O=C(O)COc1nc(Cl)c(Cl)cc1Cl [Triclopyr, 3,5,6-trichloro-2-pyridyloxyacetic acid] | 2.68
COc1c(Cl)ccc(Cl)c1C(=O)O [Dicamba, 3,6-dichloro-O-anisic acid] | 1.87
CC(Oc1ccc(Cl)cc1Cl)C(=O)O (stereo not shown) [Dichlorprop] | 2.86
CC(C)C1(C)N=C(c2nc3ccccc3cc2C(=O)O)NC1=O (stereo not shown) [Imazaquin] | 3.8
Nc1c(Cl)c(Cl)nc(C(=O)O)c1Cl [Picloram] | 2.3
CCC/C(=N\OCC)C1=C(O)CC(CC(C)SCC)CC1=O (stereo not shown) [Sethoxydim] | 4.16
CC(Oc1ccc(Oc2ccc(Cl)cc2Cl)cc1)C(=O)O (stereo not shown) [Diclofop] | 3.57
N#Cc1cc(Br)c(O)c(Br)c1 [Bromoxynil] | 4.06
O=C(O)CCCOc1ccc(Cl)cc1Cl [2,4-DB] | 4.8
